According to publication PMC10804683, “Identification of the pyridoxal 5′‐phosphate allosteric site in human pyridox(am)ine 5′‐phosphate oxidase” (Protein Science : A Publication of the Protein Society, 2024):
Residue numbers refer to the chain shown, from its start. Several values for one entry are separate records, joined by “and”; a condition that tells them apart may be missing. Identical values can stand only once. Entries after “also recorded” stand apart in the source; their conditions may differ.

Assays:
[1] = target: human PNPO R161C variant (holo-enzyme); set-up: method as in Barile et al. ([2021]); conditions: FMN fluorescence changes, ref Barile et al. ([2021]), read-out: PLP binding KD^FLUO; cited from earlier work
[2] = target: T1, apo-PNPO F48A/E50L/H248N/R258L (Homo sapiens, UniProt Q9NVS9, E50L/F48A/H248N/R258L); experiment: PLP binding by intrinsic fluorescence, apo quadruple variant; conditions: excitation 280 nm, 100 nM enzyme
T1 construct: a main form corresponding to the entire protein; made in house; host or cells: E. coli BL21(DE3)
T1 sequence (Q9NVS9 1-261 F48A/E50L/H248N/R258L): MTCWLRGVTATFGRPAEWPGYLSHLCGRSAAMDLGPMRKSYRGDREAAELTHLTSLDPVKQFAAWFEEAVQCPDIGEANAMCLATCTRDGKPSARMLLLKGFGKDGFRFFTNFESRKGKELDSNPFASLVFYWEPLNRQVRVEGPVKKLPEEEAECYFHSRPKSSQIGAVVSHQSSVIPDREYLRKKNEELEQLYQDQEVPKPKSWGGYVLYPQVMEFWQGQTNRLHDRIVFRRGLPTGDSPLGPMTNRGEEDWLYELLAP
Excerpt: (§1) PLP binding to PNPO can be detected and quantitatively measured using differential scanning fluorimetry (DSF) and also by measuring FMN fluorescence changes. We had previously attributed DSF changes to PLP binding at the active site, while FMN fluorescence changes were attributed to PLP binding at the allosteric site (Barile et al., [2019], [2020]). Previous experiments carried out with the PNPO R161C variant, affecting a residue that is essential for substrate binding and catalysis (and therefore also for PLP binding at the active site), confirms that DSF measurements only report PLP binding at the active site (Barile et al., [2021]; Table 1). […] We expected to observe no FMN fluorescence changes upon titration of the variants with PLP. However, this was not the case, and the dissociation constant values obtained by observing the FMN fluorescence emission were only up to threefold larger in the variants with respect to wild type PNPO (Figure 3). […] To check the second possibility, we measured intrinsic fluorescence changes of wild type and variant apo‐forms (i.e., without FMN) upon PLP titration. […]
Analyses of PLP binding, based on FMN fluorescence increase observed upon binding of PLP to PNPO, were performed as described in Barile et al. ([2020]). […] Emission spectra were recorded from […], with excitation and emission slits set at 3 and 5 nm, respectively. […]

[3] = target: T2, human PNPO F48A/E50L/R258L variant (Homo sapiens, UniProt Q9NVS9, E50L/F48A/R258L); experiment: PLP binding by DSF, triple variant; conditions: 50 mM Na-HEPES pH 7.6, 2 μM enzyme
T2 construct: a main form corresponding to the entire protein; made in house; host or cells: E. coli BL21(DE3)
T2 sequence (Q9NVS9 1-261 F48A/E50L/R258L): T1 sequence (Q9NVS9 1-261 F48A/E50L/H248N/R258L) with N248H
Excerpt: as §1
FIGURE 2 DSF measurements with F48A (a), F48A/E50L/R258L (b), F48A/E50L/H248N/R258L (c), and 1‐31del PNPO variants in the presence of different PLP concentrations. Upper panels: Fluorescence change is expressed as fractional variation as a function of temperature. […]

## Cc1ncc(COP(=O)(O)O)c(C=O)c1O [PLP, pyridoxal 5′‐phosphate]
[1]
  Kd: 0.53 ± 0.08 µM
[2]
  Apo-enzyme PLP binding KD^FLUO: no change in fluorescence was observed; also recorded: No binding
[3]
  Kd: 6.28 µM and 6.3 µM
